Assay results published in ChEMBL document CHEMBL1201862, “PubChem BioAssay data set” (2004).
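A five-concentration, 48-hour dose response in 96-well plates underlies each endpoint, interpolated linearly between surrounding concentrations. GI50: concentration for 50% inhibition of growth.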 The source made the active and inactive calls. Cut-off read from the data, not from the text of the source: active = GI50 up to about 1.1 µM and inactive = higher.

Tests used:
Assay in all cases: inhibition of tumour cell growth, NCI panel, 48 h
[1] = tested on: SK-MEL-5
[2] = tested on: EKVX
[3] = tested on: OVCAR-4
[4] = tested on: SK-MEL-2
[5] = tested on: LXFL 529
[6] = tested on: HCT-116
[7] = tested on: SNB-75
[8] = tested on: COLO 205
[9] = tested on: UO-31
[10] = tested on: KM12
[11] = tested on: ACHN
[12] = tested on: DMS-273
[13] = tested on: OVCAR-5
[14] = tested on: MOLT-4
[15] = tested on: HCC 2998
[16] = tested on: SN12C
[17] = tested on: UACC-257
[18] = tested on: SF-295
[19] = tested on: SNB-19
[20] = tested on: SF-539
[21] = tested on: HOP-62
[22] = tested on: M14
[23] = tested on: U-251
[24] = tested on: HCT-15
[25] = tested on: HT-29
[26] = tested on: M19-MEL
[27] = tested on: CAKI-1
[28] = tested on: SNB-78
[29] = tested on: Malme-3M
[30] = tested on: HOP-92
[31] = tested on: OVCAR-8
[32] = tested on: IGROV-1
[33] = tested on: DMS-114
[34] = tested on: XF498
[35] = tested on: A498
[36] = tested on: CCRF-CEM
[37] = tested on: RPMI-8226
[38] = tested on: TK-10
[39] = tested on: UACC-62
[40] = tested on: K562
[41] = tested on: LOX IMVI
[42] = tested on: KM-20L2
[43] = tested on: SK-MEL-28
[44] = tested on: DLD-1
[45] = tested on: NCI-H23
[46] = tested on: NCI-H522
[47] = tested on: HL-60
[48] = tested on: SW-620
[49] = tested on: A549
[50] = tested on: 786-0
[51] = tested on: OVCAR-3
[52] = tested on: NCI-H226
[53] = tested on: SF-268
[54] = tested on: SK-OV-3
[55] = tested on: NCI-H460
[56] = tested on: RXF 393
[57] = tested on: SR

CC1=CCC(O)C=CC(C)C(O)C(C)C=C(C)C(=O)c2c(O)c(C)cc3c2C(=O)C(N)=C(NC(=O)/C=C\C=C/C=CC(C)C(O)CC1=O)C3=O (stereo not given)
GI50 [1]: > 100 µM (inactive)
GI50 [2]: > 100 µM (inactive)
GI50 [3]: > 100 µM (inactive)
GI50 [4]: > 100 µM (inactive)
GI50 [5]: 27.8 µM (inactive)
GI50 [6]: 21.6 µM (inactive)
GI50 [7]: > 100 µM (inactive)
GI50 [8]: 37.1 µM (inactive)
GI50 [9]: 63 µM (inactive)
GI50 [10]: > 100 µM (inactive)
GI50 [11]: > 100 µM (inactive)
GI50 [12]: > 100 µM (inactive)
GI50 [13]: > 100 µM (inactive)
GI50 [14]: 63.7 µM (inactive)
GI50 [15]: > 100 µM (inactive)
GI50 [16]: > 100 µM (inactive)
GI50 [17]: > 100 µM (inactive)
GI50 [18]: > 100 µM (inactive)
GI50 [19]: > 100 µM (inactive)
GI50 [20]: > 100 µM (inactive)
GI50 [21]: > 100 µM (inactive)
GI50 [22]: > 100 µM (inactive)
GI50 [23]: > 100 µM (inactive)
GI50 [24]: > 100 µM
GI50 [25]: > 100 µM (inactive)
GI50 [26]: > 100 µM (inactive)
GI50 [27]: > 100 µM (inactive)
GI50 [28]: 17.3 µM (inactive)
GI50 [29]: 30.1 µM (inactive)
GI50 [30]: > 100 µM (inactive)
GI50 [31]: > 100 µM (inactive)
GI50 [32]: > 100 µM (inactive)
GI50 [33]: > 100 µM (inactive)
GI50 [34]: > 100 µM (inactive)
GI50 [35]: > 100 µM (inactive)
GI50 [36]: 67.6 µM (inactive)
GI50 [37]: > 100 µM (inactive)
GI50 [38]: > 100 µM (inactive)
GI50 [39]: > 100 µM (inactive)
GI50 [40]: > 100 µM (inactive)
GI50 [41]: > 100 µM (inactive)
GI50 [42]: > 100 µM (inactive)
GI50 [43]: > 100 µM (inactive)
GI50 [44]: > 100 µM (inactive)
GI50 [45]: > 100 µM (inactive)
GI50 [46]: 19.5 µM (inactive)
GI50 [47]: 0.292 µM (active)
GI50 [48]: > 100 µM (inactive)
GI50 [49]: > 100 µM (inactive)
GI50 [50]: > 100 µM (inactive)
GI50 [51]: 64.4 µM (inactive)
GI50 [52]: > 100 µM (inactive)
GI50 [53]: > 100 µM (inactive)
GI50 [54]: > 100 µM (inactive)

COc1ccc(C(=O)O)c2c(=O)c3ccccc3[nH]c12
GI50 [2]: > 100 µM (inactive)
GI50 [3]: > 100 µM (inactive)
GI50 [4]: > 100 µM (inactive)
GI50 [5]: > 100 µM (inactive)
GI50 [6]: > 100 µM (inactive)
GI50 [8]: > 100 µM (inactive)
GI50 [9]: > 100 µM (inactive)
GI50 [10]: > 100 µM (inactive)
GI50 [11]: > 100 µM (inactive)
GI50 [12]: > 100 µM (inactive)
GI50 [13]: > 100 µM (inactive)
GI50 [14]: > 100 µM (inactive)
GI50 [15]: > 100 µM (inactive)
GI50 [16]: > 100 µM (inactive)
GI50 [55]: > 100 µM (inactive)
GI50 [17]: > 100 µM (inactive)
GI50 [56]: > 100 µM (inactive)
GI50 [18]: > 100 µM (inactive)
GI50 [19]: > 100 µM (inactive)
GI50 [20]: > 100 µM (inactive)
GI50 [21]: > 31.6 µM (inactive)
GI50 [22]: > 31.6 µM (inactive)
GI50 [23]: > 100 µM (inactive)
GI50 [24]: > 100 µM
GI50 [25]: > 100 µM (inactive)
GI50 [26]: > 100 µM (inactive)
GI50 [27]: > 100 µM (inactive)
GI50 [28]: > 100 µM (inactive)
GI50 [29]: > 100 µM (inactive)
GI50 [30]: > 100 µM (inactive)
GI50 [31]: > 100 µM (inactive)
GI50 [32]: > 100 µM (inactive)
GI50 [57]: > 100 µM (inactive)
GI50 [34]: > 100 µM (inactive)
GI50 [35]: > 100 µM (inactive)
GI50 [36]: > 31.6 µM (inactive)
GI50 [37]: > 100 µM (inactive)
GI50 [38]: > 100 µM (inactive)
GI50 [39]: > 100 µM (inactive)
GI50 [40]: > 100 µM (inactive)
GI50 [41]: > 100 µM (inactive)
GI50 [42]: > 100 µM (inactive)
GI50 [43]: > 100 µM (inactive)
GI50 [45]: > 100 µM (inactive)
GI50 [46]: > 100 µM (inactive)
GI50 [47]: > 100 µM (inactive)
GI50 [48]: > 100 µM (inactive)
GI50 [49]: > 100 µM (inactive)
GI50 [50]: > 100 µM (inactive)
GI50 [51]: > 10 µM (inactive)
GI50 [52]: > 100 µM (inactive)
GI50 [53]: > 100 µM (inactive)
GI50 [54]: > 100 µM (inactive)

Cc1ccc(NC(=O)CC2C(=O)Nc3ccccc3[S+]2[O-])cc1C (stereo not given)
GI50 [1]: 73.8 µM (inactive)
GI50 [2]: > 100 µM (inactive)
GI50 [3]: 16.4 µM (inactive)
GI50 [4]: > 100 µM (inactive)
GI50 [5]: 88.3 µM (inactive)
GI50 [6]: 49.2 µM (inactive)
GI50 [7]: > 100 µM (inactive)
GI50 [9]: 42.1 µM (inactive)
GI50 [11]: 73.8 µM (inactive)
GI50 [12]: 28.1 µM (inactive)
GI50 [13]: > 100 µM (inactive)
GI50 [14]: 25.5 µM (inactive)
GI50 [15]: > 100 µM (inactive)
GI50 [16]: > 100 µM (inactive)
GI50 [55]: > 100 µM (inactive)
GI50 [17]: > 100 µM (inactive)
GI50 [56]: 22 µM (inactive)
GI50 [18]: > 100 µM (inactive)
GI50 [19]: 46 µM (inactive)
GI50 [20]: 23.7 µM (inactive)
GI50 [22]: > 100 µM (inactive)
GI50 [23]: 44.3 µM (inactive)
GI50 [24]: > 100 µM
GI50 [25]: > 100 µM (inactive)
GI50 [26]: > 100 µM (inactive)
GI50 [27]: > 100 µM (inactive)
GI50 [28]: > 100 µM (inactive)
GI50 [29]: > 100 µM (inactive)
GI50 [30]: 26 µM (inactive)
GI50 [31]: 34 µM (inactive)
GI50 [32]: > 100 µM (inactive)
GI50 [33]: 48.1 µM (inactive)
GI50 [57]: 63.5 µM (inactive)
GI50 [34]: > 100 µM (inactive)
GI50 [35]: > 100 µM (inactive)
GI50 [36]: > 100 µM (inactive)
GI50 [37]: 29 µM (inactive)
GI50 [38]: > 100 µM (inactive)
GI50 [39]: > 100 µM (inactive)
GI50 [40]: 91.8 µM (inactive)
GI50 [41]: 48.6 µM (inactive)
GI50 [42]: > 100 µM (inactive)
GI50 [43]: > 100 µM (inactive)
GI50 [44]: > 100 µM (inactive)
GI50 [45]: 63.5 µM (inactive)
GI50 [46]: 32.1 µM (inactive)
GI50 [47]: 41.7 µM (inactive)
GI50 [48]: 66.4 µM (inactive)
GI50 [49]: > 100 µM (inactive)
GI50 [50]: 24.8 µM (inactive)
GI50 [51]: 40.6 µM (inactive)
GI50 [52]: > 100 µM (inactive)
GI50 [53]: 75.2 µM (inactive)
